Reference: PMC10207366, “Screening and Biological Evaluation of Soluble Epoxide Hydrolase Inhibitors: Assessing the Role of Hydrophobicity in the Pharmacophore-Guided Search of Novel Hits” (Journal of Chemical Information and Modeling, 2023)
Where two headings read alike, the source gives them in different places.

Experiments:
[1] = target: T1, purified recombinant hsEH (Homo sapiens, UniProt P34913); assay: fluorescence-based sEH IC50 assay (CMNPC substrate); assay type: biochemical
T1 sequence (P34913 1-555): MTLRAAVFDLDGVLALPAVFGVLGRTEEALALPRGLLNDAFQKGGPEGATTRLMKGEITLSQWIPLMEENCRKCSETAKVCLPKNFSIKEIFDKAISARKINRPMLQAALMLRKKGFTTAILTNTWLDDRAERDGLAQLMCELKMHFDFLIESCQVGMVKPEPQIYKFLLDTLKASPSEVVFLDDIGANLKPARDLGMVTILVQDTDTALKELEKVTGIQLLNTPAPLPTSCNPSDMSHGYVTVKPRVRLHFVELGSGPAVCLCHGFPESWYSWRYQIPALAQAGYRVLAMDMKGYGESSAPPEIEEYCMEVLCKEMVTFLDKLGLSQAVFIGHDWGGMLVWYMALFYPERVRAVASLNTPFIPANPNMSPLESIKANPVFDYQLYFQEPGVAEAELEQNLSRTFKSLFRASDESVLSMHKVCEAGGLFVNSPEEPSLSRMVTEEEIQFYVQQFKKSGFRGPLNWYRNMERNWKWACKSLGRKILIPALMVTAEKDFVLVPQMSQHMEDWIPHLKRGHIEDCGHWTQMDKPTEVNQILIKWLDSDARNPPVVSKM
Protocol: (§1) The IC50 values of the 18 compounds selected from the log P + HB and QE + R3 pharmacophore ranking were determined using a fluorescence-based assay[68] with either purified recombinant hsEH, mouse sEH (msEH), or rat sEH (rsEH). The enzyme was incubated at 30 °C with the inhibitors ([I]final = 0.4–50,000 nM) for 5 min in 100 mM sodium phosphate buffer (200 μL, pH 7.4) containing 0.1 mg/mL of […] (BSA) and 1% dimethyl sulfoxide (DMSO). The substrate (cyano(6-methoxynaphthalen-2-yl)methyl((3-phenyloxiran-2-yl)methyl)carbonate; CMNPC) was then added ([S]final = 5 μM). The activity was assessed by measuring the appearance of the fluorescent 6-methoxynaphthaldehyde product (λex = 330 nm, λem = 465 nm) every 30 s for 10 min at 30 °C on a SpectraMax M2 (Molecular Devices, CA). The results were obtained by regression analysis from a linear region of the curve.

[2] = target: T2, mouse sEH (msEH) (Mus musculus, UniProt P34914); assay: as above; assay type: biochemical; settings: experimental
T2 sequence (P34914 1-554): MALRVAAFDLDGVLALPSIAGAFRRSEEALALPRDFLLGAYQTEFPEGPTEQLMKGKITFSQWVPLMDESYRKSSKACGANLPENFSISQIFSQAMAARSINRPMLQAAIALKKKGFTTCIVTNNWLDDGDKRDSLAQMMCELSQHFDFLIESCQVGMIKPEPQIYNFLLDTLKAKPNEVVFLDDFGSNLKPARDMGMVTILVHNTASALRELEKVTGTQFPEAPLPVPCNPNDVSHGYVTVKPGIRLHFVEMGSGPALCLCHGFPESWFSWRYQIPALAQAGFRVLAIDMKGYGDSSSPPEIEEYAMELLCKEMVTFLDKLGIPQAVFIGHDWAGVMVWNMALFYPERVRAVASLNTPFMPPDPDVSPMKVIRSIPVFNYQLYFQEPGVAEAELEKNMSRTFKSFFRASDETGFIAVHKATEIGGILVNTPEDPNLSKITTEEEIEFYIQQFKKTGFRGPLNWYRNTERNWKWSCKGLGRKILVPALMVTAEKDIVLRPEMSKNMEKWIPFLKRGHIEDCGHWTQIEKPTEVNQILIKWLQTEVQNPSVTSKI
Protocol: as §1

[3] = target: T3, rat sEH (rsEH) (Rattus norvegicus, UniProt P80299); assay: as above; assay type: biochemical; settings: experimental
T3 sequence (P80299 1-554): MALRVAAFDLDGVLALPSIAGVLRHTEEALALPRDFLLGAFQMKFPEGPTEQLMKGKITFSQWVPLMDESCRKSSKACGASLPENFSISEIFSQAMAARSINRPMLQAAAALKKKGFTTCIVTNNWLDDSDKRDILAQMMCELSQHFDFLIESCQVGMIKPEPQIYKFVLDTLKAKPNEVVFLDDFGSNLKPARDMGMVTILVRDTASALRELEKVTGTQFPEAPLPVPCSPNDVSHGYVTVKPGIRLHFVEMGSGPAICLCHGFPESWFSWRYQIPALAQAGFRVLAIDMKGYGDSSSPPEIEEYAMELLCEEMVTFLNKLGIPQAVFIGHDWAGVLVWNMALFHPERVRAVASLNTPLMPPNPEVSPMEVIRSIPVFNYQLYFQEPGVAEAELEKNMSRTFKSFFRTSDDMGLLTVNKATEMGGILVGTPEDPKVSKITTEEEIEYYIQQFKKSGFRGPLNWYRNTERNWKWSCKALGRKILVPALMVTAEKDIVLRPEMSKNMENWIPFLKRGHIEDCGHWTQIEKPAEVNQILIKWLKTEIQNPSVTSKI
Protocol: as §1

[4] = tested on: hsEH; settings: training set, Table S1; ref reference publication (DOI) of Table S1; cited from earlier work
[5] = experimental, human sEH, read-out: pIC50 hsEH (converted)

| SMILES | IC50 [1, 5] [nM] | IC50 [2] [nM] | IC50 [3] [nM] | further results |
| --- | --- | --- | --- | --- |
| Cc1ccc(C(C)C)c(OCc2ccc(C(=O)NNC(=O)NC34CC5CC(CC(C5)C3)C4)o2)c1 [AK-968/15603026, Cc1ccc(C(C)C)c(OCc2ccc(C(=O)NNC(=O)NC34CC5CC(CC(C5)C3)C4)o2)c1] | 126 | 316 | 39.8 | – |
| O=C(N/N=C/c1c2ccccc2cc2ccccc12)NC12CC3CC(CC(C3)C1)C2 [AK-968/40204236, O=C(N/N=C/c1c2ccccc2cc2ccccc12)NC12CC3CC(CC(C3)C1)C2] | – | – | – | pIC50 msEH [2]: 5.8; pIC50 rsEH [3]: 6.5 |
| O=C(NCCC(c1ccccc1)c1ccccc1)NC1CCCCC1 [AK-968/41927527, O=C(NCCC(c1ccccc1)c1ccccc1)NC1CCCCC1] | 0.398 | 1.26 | 0.398 | IC50 hsEH ([1]; human enzyme): subnanomolar |
| O=C(CSc1nc(-c2ccccc2)cn1-c1ccccc1)NC(=O)Nc1ccccc1 [AO-476/43362680, O=C(CSc1nc(-c2ccccc2)cn1-c1ccccc1)NC(=O)Nc1ccccc1] | 3980 | 25100 | 25100 | – |
| O=C(NC1CCC(Oc2ccc(C(=O)O)cc2)CC1)NC12CC3CC(CC(C3)C1)C2 (stereo not drawn) [TR_mol5, 4-[(trans-4-{[(3s,5s,7s)-tricyclo[3.3.1.1∼3,7∼]dec-1-ylcarbamoyl]amino}cyclohexyl)oxy]benzoic acid] | – | – | – | pIC50 [4]: 8.9 |
| O=C(Nc1ccc2c(c1)-c1ccccc1S2(=O)=O)N1CCC(F)(F)CC1 [TR_mol15, N-(5,5-dioxodibenzothiophen-2-yl)-4,4-difluoro-piperidine-1-carboxamide] | – | – | – | pIC50 [4]: 7.8 |
| O=C(NC[C@H]1COc2ccccc2O1)c1ccc2c(c1)N(Cc1cccc(Cl)c1)C(=O)CS2 [TR_mol17, 4-[(3-chlorophenyl)methyl]-N-[[(3S)-2,3-dihydro-1,4-benzodioxin-3-yl]methyl]-3-oxidanylidene-1,4-benzothiazine-6-carboxamide] | – | – | – | pIC50 [4]: 7.5 |
| O=C(O)CCCNC(=O)NC1CCCCC1 [TR_mol23] | – | – | – | pIC50 [4]: 3.3 |
| O=C(O)CCCCCNC(=O)NC1CCCCC1 [TR_mol33] | – | – | – | pIC50 [4]: 3.6 |
| O=C(COC(=O)c1ccc(N2CCCC2=O)cc1)NC(=O)NC12CC3CC(CC(C3)C1)C2 [Z23294293, O=C(COC(=O)c1ccc(N2CCCC2=O)cc1)NC(=O)NC12CC3CC(CC(C3)C1)C2] | 100 | 631 | 39.8 | – |
| O=C(NCCC(=O)N1CCN(S(=O)(=O)c2ccccc2F)CC1)NC12CC3CC(CC(C3)C1)C2 [Z29532165, O=C(NCCC(=O)N1CCN(S(=O)(=O)c2ccccc2F)CC1)NC12CC3CC(CC(C3)C1)C2] | 501 | 398 | 39.8 | – |
| O=C(NNC(=O)c1ccc(COc2ccccc2)cc1)NC12CC3CC(CC(C3)C1)C2 [Z44611499, O=C(NNC(=O)c1ccc(COc2ccccc2)cc1)NC12CC3CC(CC(C3)C1)C2] | 6.31 | 126 | 20 | IC50 ([1]; human enzyme, read-out: IC50 hsEH): < 20 nM |
| CC(C(=O)NC(=O)NC12CC3CC(CC(C3)C1)C2)N1CCN(C(=O)C2COc3ccccc3O2)CC1 (stereo not shown) [Z65159029, CC(C(=O)NC(=O)NC12CC3CC(CC(C3)C1)C2)N1CCN(C(=O)C2COc3ccccc3O2)CC1] | 5010 | 20000 | 2000 | – |
| O=C(NCc1ccc(N2CCCC2=O)cc1)NCc1cccc(C(F)(F)F)c1 [Z211761694, O=C(NCc1ccc(N2CCCC2=O)cc1)NCc1cccc(C(F)(F)F)c1] | 200 | 501 | 200 | – |
| CC(NC(=O)NCc1ccc(N2CCCC2=O)cc1)c1cccc(Cl)c1 (stereo not shown) [Z211852480, CC(NC(=O)NCc1ccc(N2CCCC2=O)cc1)c1cccc(Cl)c1] | 126 | 631 | 501 | – |
| CC(C)N1CCC(NC(=O)NCCC(c2ccccc2)c2ccccc2)CC1 [Z339670416, CC(C)N1CCC(NC(=O)NCCC(c2ccccc2)c2ccccc2)CC1] | 100 | 1580 | 501 | – |
| NC(=O)COc1ccc(NC(=O)NCCC(c2ccccc2)c2ccccc2)cc1 [Z339843288, NC(=O)COc1ccc(NC(=O)NCCC(c2ccccc2)c2ccccc2)cc1] | 1.26 | 1.26 | 1 | – |
| O=C(NCc1ccc(-c2nc3ccccc3s2)o1)NC1CCCC(C(F)(F)F)C1 (stereo not shown) [Z353003074, O=C(NCc1ccc(-c2nc3ccccc3s2)o1)NC1CCCC(C(F)(F)F)C1] | 6.31 | 10 | 5.01 | – |
| CC1CCCCC1OCCNC(=O)Nc1cccc(OCc2ccccn2)c1 (stereo not shown) [Z416144030, CC1CCCCC1OCCNC(=O)Nc1cccc(OCc2ccccn2)c1] | 15.8 | 200 | 20 | – |
| CC1CCC(NC(=O)Nc2cccc(Cn3nc4ccccn4c3=O)c2)CC1 (stereo not shown) [Z436130862, CC1CCC(NC(=O)Nc2cccc(Cn3nc4ccccn4c3=O)c2)CC1] | 0.794 | 1 | 1 | IC50 hsEH ([1]; human enzyme): subnanomolar |
| CC(=O)CCc1ccc(OCC(=O)N2CCCC(CNC(=O)Nc3ccc(C)cc3)C2)cc1 (stereo not shown) [Z1033382608, CC(=O)CCc1ccc(OCC(=O)N2CCCC(CNC(=O)Nc3ccc(C)cc3)C2)cc1] | 501 | 3160 | 398 | – |
